# Target: T1, human TLR8 (Homo sapiens, UniProt Q9NR97)
# T1 construct: host or cells: HEK293-Blue-hTLR-8 (HEK293)
# T1 sequence (Q9NR97 27-1041): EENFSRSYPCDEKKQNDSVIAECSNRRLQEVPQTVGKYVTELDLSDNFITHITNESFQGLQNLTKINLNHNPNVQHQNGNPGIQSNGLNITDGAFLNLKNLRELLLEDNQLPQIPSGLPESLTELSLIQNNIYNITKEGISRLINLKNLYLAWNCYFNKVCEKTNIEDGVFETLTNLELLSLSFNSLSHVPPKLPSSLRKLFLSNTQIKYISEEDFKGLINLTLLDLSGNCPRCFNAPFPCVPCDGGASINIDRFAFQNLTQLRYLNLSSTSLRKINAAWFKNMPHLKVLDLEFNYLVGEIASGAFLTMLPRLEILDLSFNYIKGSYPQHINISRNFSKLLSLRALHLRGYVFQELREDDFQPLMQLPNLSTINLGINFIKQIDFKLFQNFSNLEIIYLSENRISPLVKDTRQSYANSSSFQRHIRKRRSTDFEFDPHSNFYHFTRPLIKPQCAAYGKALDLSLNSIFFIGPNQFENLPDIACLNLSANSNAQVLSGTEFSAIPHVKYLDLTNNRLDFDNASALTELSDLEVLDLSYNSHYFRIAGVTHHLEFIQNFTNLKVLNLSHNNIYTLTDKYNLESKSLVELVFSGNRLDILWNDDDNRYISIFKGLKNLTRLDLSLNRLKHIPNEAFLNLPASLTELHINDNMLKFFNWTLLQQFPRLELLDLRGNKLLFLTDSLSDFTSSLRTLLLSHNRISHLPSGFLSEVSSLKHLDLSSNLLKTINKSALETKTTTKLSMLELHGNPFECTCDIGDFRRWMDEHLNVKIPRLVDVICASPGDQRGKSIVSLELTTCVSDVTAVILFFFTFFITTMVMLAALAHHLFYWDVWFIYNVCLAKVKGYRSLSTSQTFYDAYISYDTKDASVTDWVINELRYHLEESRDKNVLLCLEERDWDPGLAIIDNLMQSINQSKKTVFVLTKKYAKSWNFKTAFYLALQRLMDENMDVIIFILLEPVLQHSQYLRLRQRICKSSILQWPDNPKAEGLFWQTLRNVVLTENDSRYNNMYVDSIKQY
# Assay: HEK293-Blue-hTLR-8 cells assay
# Format: cell-based
# Settings: HEK293-Blue-hTLR8 cells, R848 stimulation, 20 hrs, SEAP reporter; read-out: HEK/hTLR8 IC50
# Protocol: The following tests were carried out in order to determine the activity of the compounds of formula (I) and (Ia) in HEK293-Blue-hTLR-7/8/9 cells assay.
# HEK293-Blue-hTLR-8 cells assay:
# A stable HEK293-Blue-hTLR-8 cell line was purchased from InvivoGen (Cat. #: hkb-htlr8, San Diego, Calif., USA). These cells were originally designed for studying the stimulation of human TLR8 by monitoring the activation of NE-κB. A SEAP (secreted embryonic alkaline phosphatase) reporter gene was placed under the control of the IFN-β minimal promoter fused to five NE-κB and AP-1-binding sites. The SEAP was induced by activating NE-κB and AP-1 via stimulating HEK-Blue hTLR8 cells with TLR8 ligands. Therefore the reporter expression was declined by TLR8 antagonist under the stimulation of a ligand, such as R848, for incubation of 20 hrs. The cell culture supernatant SEAP reporter activity was determined using QUANTI-Blue™ kit (Cat. #: rep-qbl, Invivogen, San Diego, Ca, USA) at a wavelength of 640 nm, a detection medium that turns purple or blue in the presence of alkaline phosphatase.
# HEK293-Blue-hTLR8 cells were incubated at a density of 250,000-450,000 cells/mL in a volume of 170 μL in a 96-well plate in Dulbecco's Modified Eagle's medium (DMEM) containing 4.5 g/L glucose, 50 U/mL penicillin, […], […], 2 mM L-glutamine, 10% (v/v) heat-inactivated fetal bovine serum with addition of 20 μL test compound in a serial dilution in the presence of final DMSO at 1% and 10 μL of 60 uM R848 in above DMEM, perform incubation under 37° C. in a CO2 incubator for 20 hrs. Then 20 μL of the supernatant from each well was incubated with 180 μL Quanti-blue substrate solution at 37° C. for 2 hrs and the absorbance was read at 620˜655 nm using a spectrophotometer. The signalling pathway that TLR8 activation leads to downstream NE-κB activation has been widely accepted, and therefore similar reporter assay was modified for evaluating TLR8 antagonist.
row,Compound,IC50
1,Cc1cc(N2CCN(C[C@H]3CN(c4ccc(C#N)c5ncccc45)C[C@@H](C)O3)[C@H](C)C2)cc(CO)n1 [Example 4B],5 nM
2,Cc1cc(N2CCC23CN(C[C@H]2CN(c4ccc(C#N)c5ncccc45)C[C@@H](C)O2)C3)cc(C)n1 [Example 8],7 nM
3,Cc1cc(N2C[C@H]3CN(C[C@H]4CN(c5ccc(C#N)c6ncccc56)C[C@@H](C)O4)C[C@H]3C2)cc(CO)n1 [Example 10],22 nM
4,Cc1cc(N(C)C2CN(C[C@H]3CN(c4ccc(C#N)c5ncccc45)C[C@@H](C)O3)C2)cc(C)n1 [Example 11],11 nM
5,Cc1cc(N2CCC23CN(C[C@H]2CN(c4ccc(C#N)c5ncccc45)C[C@@H](C)O2)C3)cc(CO)n1 [Example 12],12 nM
6,Cc1cc(N2CCC23CN(C[C@H]2CN(c4ccc(C#N)c5ncccc45)C[C@@H](C)O2)C3)ccn1 [Example 15],6 nM
7,"C[C@@H]1CN(c2ccc(C#N)c3ncccc23)C[C@H](CN[C@@H]2CCCN(c3ccnc(N)c3)C2)O1 [Example 21, 5-[(2S,6R)-2-[[[(3R)-1-(2-amino-4-pyridyl)-3-piperidyl]amino]methyl]-6-methyl-morpholin-4-yl]quinoline-8-carbonitrile]",15 nM
8,C[C@@H]1CN(c2ccc(C#N)c3ncccc23)C[C@H](CN[C@H]2CCCN(c3ccnc(N)c3)C2)O1 [Example 22],38 nM
9,Cc1cc(N2CCC(NC[C@H]3CN(c4ccc(C#N)c5ncccc45)C[C@@H](C)O3)CC2)cc(CO)n1 [Example 23],41 nM
10,Cc1cc(N2CCC[C@@H](NC[C@H]3CN(c4ccc(C#N)c5ncccc45)C[C@@H](C)O3)C2)cc(CO)n1 [Example 24],10 nM
11,Cc1cc(N2CCC[C@H](NC[C@H]3CN(c4ccc(C#N)c5ncccc45)C[C@@H](C)O3)C2)cc(CO)n1 [Example 25],14 nM
12,Cc1cc(N2CC[C@H](NC[C@H]3CN(c4ccc(C#N)c5ncccc45)C[C@@H](C)O3)C2)cc(CO)n1 [Example 29],25 nM
13,Cc1cc(N2CC[C@H](F)[C@H](NC[C@H]3CN(c4ccc(C#N)c5ncccc45)C[C@@H](C)O3)C2)cc(CO)n1 [Example 33],7 nM
14,Cc1cc(N2CCC[C@@H](N(C)C[C@H]3CN(c4ccc(C#N)c5ncccc45)C[C@@H](C)O3)C2)cc(CO)n1 [Example 35],9 nM
15,Cc1cc(N2CC(NC[C@H]3CN(c4ccc(C#N)c5ncccc45)C[C@@H](C)O3)CC(F)(F)C2)cc(CO)n1 (some centres unmarked) [Example 36],12 nM

# The next molecules have a lower IC50 than those just listed; values first:
row,IC50,Compound
1,< 3 nM,"Cc1cc(N2CCOC3CN(CC4CN(c5ccc(C#N)c6ncccc56)CC(C)O4)CC32)cc(C)n1 (single isomer, unassigned) [Example 17A]"
2,3 nM,"Cc1cc(N2CCOC3CN(CC4CN(c5ccc(C#N)c6ncccc56)CC(C)O4)CC32)cc(C)n1 (single isomer, unassigned) [Example 17B]"
3,< 3 nM,"C[C@@H]1CN(c2ccc(C#N)c3ncccc23)C[C@H](CN2CC3(C2)CN(c2ccnc(C4CC4)c2)CCO3)O1 [Example 3, 5-[(2S,6R)-2-[[8-(2-cyclopropyl-4-pyridyl)-5-oxa-2,8-diazaspiro[3.5]nonan-2-yl]methyl]-6-methyl-morpholin-4-yl]quinoline-8-carbonitrile]"
4,< 3 nM,Cc1cc(N2CCOC3(CN(C[C@H]4CN(c5ccc(C#N)c6ncccc56)C[C@@H](C)O4)C3)C2)cc(C)n1 [Example 14]
5,< 3 nM,Cc1cc(N2CCOC3(CN(C[C@H]4CN(c5ccc(C#N)c6ncccc56)C[C@@H](C)O4)C3)C2)ccn1 [Example 16]
6,3 nM,"C[C@@H]1CN(c2ccc(C#N)c3ncccc23)C[C@H](CN2CCN(c3ccnc(N)c3)CC2)O1 [Example 19, 5-[(2S,6R)-2-[[4-(2-amino-4-pyridyl)piperazin-1-yl]methyl]-6-methyl-morpholin-4-yl]quinoline-8-carbonitrile]"
7,4 nM,Cc1cc(N2CC[C@@H](F)[C@H](NC[C@H]3CN(c4ccc(C#N)c5ncccc45)C[C@@H](C)O3)C2)cc(CO)n1 [Example 34]
8,4 nM,Cc1cc(N2CCC[C@H](N(C)C[C@H]3CN(c4ccc(C#N)c5ncccc45)C[C@@H](C)O3)C2)cc(CO)n1 [Example 38]
